Tested on: Wt-BaF3
Assay: Parental Ba/F3 cell proliferation (CellTiter Glo)
Assay type: cell-based, murine
Conditions: Mus musculus, parental BaF/3 cells, 48 hours
Outline: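 Untransformed murine Ba/F3 cells, kept on 15% WEHI conditioned medium as IL3 source, were seeded at 5000 cells/well with compound. Viability was read by luminescence using CellTiter Glo diluted 1:4 in PBS, with no-cell background and vehicle controls.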

Cc1ccc(Nc2ncc3c(n2)N(C)CN(c2cc(NC(=O)c4cccc(C(F)(F)F)c4)ccc2C)C3)cn1 [IA-9, N-(4-methyl-3-(1-methyl-7-((6-methylpyridin-3-yl)amino)-1,4-dihydropyrimido[4,5-d]pyrimidin-3(2H)-yl)phenyl)-3-(trifluoromethyl)benzamide]
IC50: 5.38 µM

From patent US10364247B2, “Preparation and use of novel protein kinase inhibitors” (Ruijin Hospital Affiliated to Shanghai Jiao Tong University …, priority 2015, dated 2019)
